Patent US20100152129A1 (priority 2008, published 2010)
Values joined by “and” are separate entries in the source; they are usually repeats but may differ in a detail not shown here. Equal values may be shown once.

Assays:
[1] = system: xenograft models of colon cancer (HCT-116, SW-480) and non-small cell lung cancer (H-460); conditions: oral administration; SCID mice; cited from earlier work
[2] = preclinical studies; cited from earlier work
[3] = system: Panc-1 cells; experiment: CCK-8 based cytotoxicity assay; assay type: cell-based
Text: CCK-8 based cytotoxicity assay is a sensitive nonradioactive colorimetric assay for determining the number of viable cells in cell proliferation and cytotoxicity assays. WST-8 (2-(2-methoxy-4-nitrophenyl)-3-(4-nitrophenyl)-5-(2,4-disulfophenyl)-2H tetrazolium, monosodium salt) is bioreduced by cellular dehydrogenases to an orange formazan product that is soluble in tissue culture medium. The amount of formazan produced is directly proportional to the number of living cells.
Test System: The Panc-1 cell line was procured from ATCC (American Tissue type Culture Collection USA, catalog number: CRL-1469) and the frozen vial was stored in liquid nitrogen container.
Panc-1 cells were seeded at a density of 3000 cells/well in a 96 well plate and allowed to recover for 24 hrs in a CO2 incubator at 37° C. […] The final DMSO concentration was 0.5% in wells. Plates were incubated for 24, 48, and 72 hrs. At the end of incubation CCK-8 was added and kept at 37° C. for 3 hrs following which absorbance was measured at 450 nm.

[4] = system: Panc-1 cells; experiment: Protein expression using high content cell imaging system, and efficacy score; assay type: cell-based; conditions: for Efficacy score: cumulative over proteins of Table 7
[5] = 6 hours post treatment, control 3
[6] = 36 hours post treatment, control 98

CN1CC[C@@H](c2c(O)cc(O)c3c(=O)cc(-c4ccc(C(F)(F)F)cc4Cl)oc23)[C@@H]1CO.Cl (relative stereo) [P1446A]
tumor growth inhibition [1]: significant tumor growth inhibition | oral bioavailability [2]: good oral bioavailability | % Cytotoxicity ([3]; P1446A 30 nM, 24 hrs): 29.825% | % Cytotoxicity ([3]; P1446A 30 nM, 72 hrs): 23.33% | % Cytotoxicity ([3]; P1446A 100 nM, 24 hrs): 26.525% | % Cytotoxicity ([3]; P1446A 100 nM, 48 hrs): 24.596% | % Cytotoxicity ([3]; P1446A 300 nM, 24 hrs): 34.36% | % Cytotoxicity ([3]; P1446A 300 nM, 48 hrs): 28.636% | % Cytotoxicity ([3]; P1446A 300 nM, 72 hrs, hydrochloride): 31.05% and 31.075% | PTN protein expression ([4]; 6 hours post treatment, control 1): 3 fluorescence units | GADD45-α protein expression [4, 5]: 3 fluorescence units | ID1 protein expression [4, 5]: 38 fluorescence units | P27 protein expression ([4]; 6 hours post treatment, control 6): 4 fluorescence units | CDC25B protein expression ([4]; 6 hours post treatment, control 7): 4 fluorescence units | CDKN2A protein expression ([4]; 6 hours post treatment, control 8): 49 fluorescence units | CCND1 protein expression ([4]; 6 hours post treatment, control 74): 87 fluorescence units | GAPDH protein expression ([4]; 6 hours post treatment, control 80): 78 fluorescence units | CASP3 protein expression ([4]; 6 hours post treatment, control 147): 102 fluorescence units | MMP-1 protein expression ([4]; 6 hours post treatment, control 501): 235 fluorescence units | COX15 protein expression ([4]; 6 hours post treatment, control 627): 628 fluorescence units | COX2 protein expression ([4]; 6 hours post treatment, control 635): 457 fluorescence units | BAX protein expression ([4]; 6 hours post treatment, control 819): 421 fluorescence units | VEGF protein expression ([4]; 6 hours post treatment, control 829): 235 fluorescence units | BCL2 protein expression ([4]; 6 hours post treatment, control 830): 587 fluorescence units | pRB protein expression ([4]; 6 hours post treatment, control 1240): 1489 fluorescence units | Efficacy score ([4]; 6 hours): 2.1 | GADD45-α protein expression ([4]; 16 hours post treatment, control 13): 46 fluorescence units | CDC25B protein expression ([4]; 16 hours post treatment, control 54): 45 fluorescence units | CDKN2A protein expression ([4]; 16 hours post treatment, control 64): 55 fluorescence units | P27 protein expression ([4]; 16 hours post treatment, control 67): 37 fluorescence units | PTN protein expression ([4]; 16 hours post treatment, control 76): 34 fluorescence units | ID1 protein expression ([4]; 16 hours post treatment, control 77): 67 fluorescence units | CCND1 protein expression ([4]; 16 hours post treatment, control 90): 85 fluorescence units | GAPDH protein expression ([4]; 16 hours post treatment, control 100): 100 fluorescence units | CASP3 protein expression ([4]; 16 hours post treatment, control 202): 1157 fluorescence units | VEGF protein expression ([4]; 16 hours post treatment, control 579): 420 fluorescence units | BCL2 protein expression ([4]; 16 hours post treatment, control 644): 546 fluorescence units | BAX protein expression ([4]; 16 hours post treatment, control 711): 688 fluorescence units | COX15 protein expression ([4]; 16 hours post treatment, control 718): 896 fluorescence units | MMP-1 protein expression ([4]; 16 hours post treatment, control 929): 420 fluorescence units | COX2 protein expression ([4]; 16 hours post treatment, control 1109): 1063 fluorescence units | pRB protein expression ([4]; 16 hours post treatment, control 2583): 1721 fluorescence units | Efficacy score ([4]; 16 hours): 10.3 | GADD45-α protein expression ([4]; 36 hours post treatment, control 19): 43 fluorescence units | COX2 protein expression ([4]; 36 hours post treatment, control 86): 43 fluorescence units | P27 protein expression ([4]; 36 hours post treatment, control 96): 65 fluorescence units | CCND1 protein expression [4, 6]: 55 fluorescence units | CDC25B protein expression [4, 6]: 70 fluorescence units | GAPDH protein expression [4, 6]: 63 fluorescence units | ID1 protein expression [4, 6]: 83 fluorescence units | PTN protein expression ([4]; 36 hours post treatment, control 100): 99 fluorescence units | CASP3 protein expression ([4]; 36 hours post treatment, control 265): 1220 fluorescence units | BAX protein expression ([4]; 36 hours post treatment, control 715): 1670 fluorescence units | COX15 protein expression ([4]; 36 hours post treatment, control 722): 1878 fluorescence units | VEGF protein expression ([4]; 36 hours post treatment, control 1093): 1195 fluorescence units | MMP-1 protein expression ([4]; 36 hours post treatment, control 1316): 1195 fluorescence units | BCL2 protein expression ([4]; 36 hours post treatment, control 1410): 1330 fluorescence units | CDKN2A protein expression ([4]; 36 hours post treatment, control 1441): 1395 fluorescence units | pRB protein expression ([4]; 36 hours post treatment, control 2840): 1978 fluorescence units | Efficacy score ([4]; 36 hours): 7.6
